Reference: US11760773B2, “Small molecule drug conjugates of gemcitabine monophosphate” (MaveriX Oncology, Inc., priority 2018, dated 2023)

How the values were obtained:
Rat liver S9 stability = assay type: in vitro ADME; conditions: for microsomal CLint: rat
[1] = Liver microsomal stability, rat; assay type: in vitro ADME; conditions: rat liver microsomes
[2] = CD-1 mouse plasma stability; assay type: in vitro ADME
Protocol: (§1) Method: Assay was carried out in 96-well microtiter plates. Compounds were incubated in replicates (n=2) for 0, 5, 15, 30, and 45 minutes at 37° C. Reaction mixtures (20 μL) contained a final concentration of 3 μM test compound in fresh CD-1 mouse plasma. Eucatropine included as positive control to verify assay performance. Linear regression of semi-log plot of % remaining of compounds versus time used to determine the half-life t1/2 values.

[3] = Liver microsomal stability, monkey; assay type: in vitro ADME; conditions: monkey liver microsomes
Mouse liver S9 stability = assay type: in vitro ADME; conditions: for microsomal CLint: mouse
Solubility / formulation = assay type: physicochemical
Rat plasma stability = assay type: in vitro ADME
Protocol: as §1, with “Sprague Dawley rat” for “CD-1 mouse”, “is a” for “included as”

Dog liver S9 stability = assay type: in vitro ADME; conditions: for microsomal CLint: dog
[4] = Monkey liver S9 stability; assay type: in vitro ADME; conditions: for microsomal CLint: monkey

For COc1cc(OC)c2oc(COC(=O)Nc3ccn([C@@H]4O[C@H](CO)[C@@H](O)C4(F)F)c(=O)n3)cc2c1 [Int 1-4, (5,7-di(methoxy)benzofuran-2-yl)methyl (1-((2R,4R,5R)-3,3-difluoro-4-hydroxy-5-(hydroxymethyl)tetrahydrofuran-2-yl)-2-oxo-1,2-dihydropyrimidin-4-yl)carbamate], the “Slope Mean ± SE” value (Rat liver S9 stability; rat liver S9) was −0.03579 ± 0.001471, the intrinsic clearance value (Rat liver S9 stability; rat liver S9, text value) was about 14 μL/min/mg protein and the half-life (Rat liver S9 stability; rat liver S9, read-out: t1/2 Mean ± SE) was 0.323 ± 0.0133 h. The microsomal CLint (Rat liver S9 stability; liver S9, rat liver S9, text value, read-out: intrinsic clearance value) was 14.3 µL/min/mg, the microsomal CLint (Rat liver S9 stability; liver S9, rat liver S9, read-out: CLint Mean ± SE) was 14.3 ± 0.588 µL/min/mg and the CLint [1] was 297 μL/min/mg protein. The half-life [1] was 4.66 min, the microsomal CLint [1] was 297 µL/min/mg and the “Compound Remaining (% of 0 min) 0 min” value ([1]; 0 min) was 100 % of 0 min. The “Compound Remaining (% of 0 min) 5 min” value ([1]; 5 min) was 64.7 % of 0 min, the “Compound Remaining (% of 0 min) 15 min” value ([1]; 15 min) was 20.0 % of 0 min and the “Compound Remaining (% of 0 min) 30 min” value ([1]; 30 min) was 1.81 % of 0 min. The “Compound Remaining (% of 0 min) 45 min” value ([1]; 45 min) was 0.13 % of 0 min, the “Compound Remaining (% of 0 min) control” value ([1]; control) was 95.6 % of 0 min and the “Slope Mean ± SE” value ([2]; 3 μM, 37° C., in min-1 (unit assumed)) was −0.000906 ± 0.000706. The half-life at 3 μM ([2]; fresh CD-1 mouse plasma, 3 μM, 37° C., read-out: t1/2 Mean ± SE) was 12.8 ± 9.94 h, the half-life at 3 μM ([2]; read-out: t1/2 (converted)) was about 13 h and the half-life [3] was 0.567 h. For the same molecule, the microsomal CLint [3] was 40.8 µL/min/mg, the “Compound Remaining (% of 0 min) 0 min” value ([3]; 0 min) was 100 % of 0 min and the “Compound Remaining (% of 0 min) 5 min” value ([3]; 5 min) was 99.5 % of 0 min. For the same molecule, the “Compound Remaining (% of 0 min) 15 min” value ([3]; 15 min) was 79.8 % of 0 min, the “Compound Remaining (% of 0 min) 30 min” value ([3]; 30 min) was 61.0 % of 0 min and the “Compound Remaining (% of 0 min) 45 min” value ([3]; 45 min) was 40.5 % of 0 min. The “Compound Remaining (% of 0 min) control” value ([3]; control) was 97.2 % of 0 min, the “Slope Mean ± SE” value (Mouse liver S9 stability; mouse liver S9) was −0.00317 ± 0.000413 and the half-life (Mouse liver S9 stability; mouse liver S9, read-out: t1/2 Mean ± SE) was 3.64 ± 0.475 h. For the same molecule, the microsomal CLint (Mouse liver S9 stability; liver S9, mouse liver S9, summary, read-out: S9 intrinsic clearance Clint) was under 2.5 µL/min/mg, the microsomal CLint (Mouse liver S9 stability; liver S9, mouse liver S9, text value, read-out: intrinsic clearance value) was 1.27 µL/min/mg and the microsomal CLint (Mouse liver S9 stability; liver S9, mouse liver S9, read-out: CLint Mean ± SE) was 1.27 ± 0.165 µL/min/mg. The solubility (Solubility / formulation) was “low to moderate solubility”, the “formulated to” value (Solubility / formulation; formulation) was 50 mg/mL and the “Slope Mean ± SE” value (Rat plasma stability; Sprague Dawley rat plasma, 3 μM, 37° C.) was −0.009305 ± 0.001423. The half-life at 3 μM (Rat plasma stability; Sprague Dawley rat plasma, read-out: t1/2 (converted)) was about 1.2 h, the half-life at 3 μM (Rat plasma stability; fresh Sprague Dawley rat plasma, 3 μM, 37° C., read-out: t1/2 Mean ± SE) was 1.24 ± 0.19 h and the “Slope Mean ± SE” value (Dog liver S9 stability; dog liver S9) was −0.005558 ± 0.000749. For the same molecule, the half-life (Dog liver S9 stability; dog liver S9, read-out: t1/2 Mean ± SE) was 2.08 ± 0.28 h, the intrinsic clearance value (Dog liver S9 stability; dog liver S9 experiment) was under 2.5 μL/min/mg protein and the microsomal CLint (Dog liver S9 stability; liver S9, dog liver S9, read-out: CLint Mean ± SE) was 2.22 ± 0.299 µL/min/mg. The microsomal CLint (Dog liver S9 stability; liver S9, dog liver S9 experiment, read-out: intrinsic clearance value) was 2.2 µL/min/mg, the “Slope Mean ± SE” value ([4]; monkey liver S9) was −0.03881 ± 0.002089 and the half-life ([4]; monkey liver S9, read-out: t1/2 Mean ± SE) was 0.298 ± 0.0167 h. It also gave a microsomal CLint ([4]; liver S9, monkey liver S9, summary, read-out: S9 intrinsic clearance Clint) of under 2.5 µL/min/mg, a microsomal CLint ([4]; liver S9, monkey liver S9, read-out: CLint Mean ± SE) of 15.5 ± 0.836 µL/min/mg and a microsomal CLint ([4]; liver S9, monkey liver S9 experiment, read-out: intrinsic clearance value) of 15.5 µL/min/mg.
